Source: US11497733B2, “Combination therapy of HSP90 inhibitors and PD-1 inhibitors for treating cancer” (Synta Pharmaceuticals Corp., priority 2015, dated 2022)
Entries after “also recorded” stand apart in the source; their conditions may differ.

How the values were obtained:
[1] = system: MC38 colon carcinoma tumors; assay: MC38 colon carcinoma syngeneic mouse tumor model, tumor growth; type: in vivo, C57 BL/6 mice; conditions: established MC38 tumors; ganetespib 125 mg/kg days 8 and 15; αPD-L1 200 μg days 8, 12, 15; FIG. 1A
Protocol: Such findings support the premise that targeting HSP90 may represent a complementary and therapeutically advantageous approach together with immune checkpoint blockade for augmenting antitumor immune responses.
The HSP90 inhibitor ganetespib potentiates the antitumor efficacy of PD-L1 antibody treatment in syngeneic mouse tumor models. In FIG. 1 (a), C57 BL/6 mice bearing established MC38 colon carcinoma tumors (n=7/group) were treated with 200 μg IgG1 control or anti-PD-L1 antibody (αPD-L1; Sorrento Therapeutics, Inc., San Diego), either alone or in combination with 125 mg/kg ganetespib. Ganetespib was dosed on a weekly schedule (days 8 and 15), αPD-L1 was administered on days 8, 12, and 15. […] In FIG. 1 (b), C57 BL/6 mice bearing established B16 melanoma tumors (n=3/group) were dosed using a similar regimen as in (a).

MC38 tumors = assay: Gene expression array (NanoString) of MC38 tumors after a ganetespib dose; type: in vivo, mice
Protocol: Mice with MC38 tumors received a dose of ganetespib. Tumors (3 per time point) were removed from the animals at 4, 24, 48 and 120 hr post dose. RNA was prepared and analyzed for gene expression using NanoString. Expression levels of genes were made by comparing drug treated tumors with vehicle-treated tumors.

HCC827 cells = assay: MHC Class I surface expression on HCC827 cells, flow cytometry; type: cell-based; conditions: overnight incubation, FIG. 7A
Protocol: HCC827 cells were incubated with DMSO, Interferon gamma (IFNγ) or ganetespib and stained with anti MHC Class 1 antibodies and examined by flow cytometry to determine the number of molecules per cell surface.

MC38 cells = assay: MHC Class I (H2-K) surface expression on MC38 cells, flow cytometry; type: cell-based, mouse; conditions: overnight, 100 nM ganetespib (sublethal), FIG. 7B
Protocol: MC38 cells were incubated overnight with media+0.01% DMSO (dashed red line, light blue line), or media with 100 nM ganetespib (dotted red line, dark blue line). Cells were stained with an isotype control (red lines), or antibody to mouse H2-K (blue lines).

MC38 tumor cells = assay: Chemokine production by MC38 tumor cells in vitro; type: cell-based, mouse; conditions: overnight, sublethal ganetespib with 300 U/ml TNFα, FIG. 8
Protocol: (§1) MC38 or CT26 tumor cells were incubated with the indicated concentrations of ganetespib as shown in FIG. 8 in combination with 300 U/ml TNFα overnight and supernatants were collected and assayed for chemokines.

CT26 tumor cells = assay: Chemokine production by CT26 tumor cells in vitro; type: cell-based; conditions: overnight, sublethal ganetespib with 300 U/ml TNFα, FIG. 8
Protocol: as §1

[2] = within 48-120 hr after in vivo treatment, versus vehicle-treated tumors

Question: How did the “tumor growth suppression / antitumor efficacy” value [1] turn out when `CC(C)c1cc(-c2nnc(O)n2-c2ccc3c(ccn3C)c2)c(O)cc1O` [ganetespib, 3-(2,4-DIHYDROXY-5- ISOPROPYL-PHENYL)-4-(1- METHYL-INDOL-5-YL)-5- HYDROXY-[1,2,4] TRIAZOLE (GANETESPIB)] was run?
Answer: Its value is “comparable degree of tumor growth suppression to that seen following selective anti-PD-L1 antibody treatment”.

Question: What about the “influx of immune cells into tumors (gene expression)” value (MC38 tumors; after a single ganetespib administration, FIG. 6) of the same compound?
Answer: Its value is “influx of T cells, B cells and NK cells into tumors”.

Question: And the “chemokines in tumor (gene expression)” value (MC38 tumors; after in vivo treatment, versus vehicle-treated tumors)?
Answer: Its value is “Increases in a large number of chemokines”.

Question: What about the “NK cells and CD8 cells in tumor (gene expression)” value (MC38 tumors; [2]) of the same compound?
Answer: Its value is “increased numbers of NK cells and CD8 cells”.

Question: And the “Treg cells in tumor (gene expression)” value (MC38 tumors; [2])?
Answer: Its value is “decreased Treg cells”.

Question: And the “number of HLA-ABC molecules/cell” value (HCC827 cells)?
Answer: Its value is “doubled”.

Question: And the “major histocompatibility antigen (MHC Class I, H2-K) expression” value (MC38 cells)?
Answer: The value was “upregulates major histocompatibility antigens, especially MHC Class I”.

Question: And the “chemokine production (CCL2, CCL5, CXCL10)” value (MC38 tumor cells)?
Answer: Its value is “induces chemokine production; also recorded: provokes production of chemokines by the tumor cells (CCL2, CCL5, CXCL10)”.

Question: What about the “chemokine production (CCL2, CCL5, CXCL10)” value (CT26 tumor cells) of the same compound?
Answer: Its value is “induces chemokine production; also recorded: provokes production of chemokines by the tumor cells (CCL2, CCL5, CXCL10)”.
